{
  "source": "paper PMC9161444",
  "about": "“In-Membrane Nanostructuring of Cationic Amphiphiles Affects Their Antimicrobial Efficacy and Cytotoxicity: A Comparison Study between a De Novo Antimicrobial Lipopeptide and Traditional Biocides” (Langmuir, 2022)",
  "key": {"[1]": {"assay": "Analytical RP-HPLC retention time as measure of hydrophobicity", "assay_type": "physicochemical", "conditions": "gradient of eluents", "experimental": "Lipopeptide C14KKGGII was synthesized in the form of acyl chain hydrogenated h-C14KKGGII and acyl chain deuterated d-C14KKGGII. The lipopeptide samples were prepared using a Liberty Blue automated microwave peptide synthesizer, where the standard Fmoc solid-phase strategy was followed. Dimethylformamide (DMF) was used as the solvent during the whole process. Rink-amide resin was employed as a loading anchor to synthesize C-terminal amidated lipopeptides and was swelled for 5 min in DMF before synthesis. After the removal of Fmoc groups on resins, amino acids (Fmoc-Gly-OH, Fmoc-Ile-OH, and Fmoc-Lys-OH in this study) were coupled to the solid phase in succession from the C-terminal to the N-terminal, assisted by the addition of ethyl 2-cyano-2-(hydroxyimino)acetate (OXYMA) and N,N′-diisopropylcarbodiimide (DIC) at 90 °C for 4 min. Fmoc protecting groups on amino acids were removed before further linking using 20% piperidine in DMF. Hydrogenated or deuterated myristic acid was added onto the chain in the last step using the same method. A cleavage mixture of trifluoroacetic acid (TFA), water, and tri-isopropylsilane (TIS) (94/4/2, v/v/v) was employed for the reaction with lipopeptide-loaded resins for 3 h at ambient temperature, removing the side chain protecting groups on the amino acids and releasing lipopeptides from the resin beads. […]"}, "[2]": {"conditions": "previous findings by Lu et al.; cited from earlier work", "excerpt": "From the best fitted surface tension parameters (listed in Table S2), the area per molecule (APM) could be calculated from eq 4 for each amphiphile at its respective CAC. […] This is in line with the previous findings by Lu et al., which stated that APMs of C10TAB, C12TAB, C14TAB, C16TAB, and C18TAB adsorbed on the surface of water were 55 ± 3, 50 ± 2, 48 ± 3, 43 ± 3, and 43 ± 3 Å^2, respectively.[29]−[33] Each lipopeptide molecule occupied around 79 ± 10 Å^2 at ..."}, "[3]": {"system": "NIH 3T3 fibroblasts cells (3T3 cells, ATCC-1658)", "assay_type": "cell-based", "conditions": "24 h", "experimental": "(§1) Human dermal fibroblasts cells (adult, HDFa cells) and NIH 3T3 fibroblasts cells (3T3 cells, ATCC-1658) were cultured at 37 °C in Dulbecco’s modified Eagle medium (ATCC30-2002, added with 10% heat-inactivated fetal bovine serum) with a continuous supply of CO2 at a 5% level. MTT assays were carried out to examine in vitro cytotoxicity of the amphiphiles.[22] Cells were first inoculated in flat-bottom 96-well plates, rendering 8 × 10^3 cells in 100 μL of medium for each well, and were incubated for 24 h. The cells were mixed with 100 μL of a solution of an amphiphile with 2 times the selected concentrations. Cells were then exposed to the solutions of each amphiphile for 24 h, after which 10 μL of 5 mg/mL MTT solution was added into each well, and the reaction was allowed for 2 h. 200 μL of dimethyl sulfoxide was then added to each well to dissolve the transformed MTT formazan. Light absorbance of the samples was measured using a Thermo Scientific Varioskan LUX at 570 nm. Cell samples 100% viable and 100% dead were employed as the positive control and negative control, respectively. Dose response curves were obtained by applying sigmoidal function fittings to obtain 50% effective concentrations (EC50)."}, "[4]": {"system": "Human dermal fibroblasts cells (adult, HDFa cells)", "assay_type": "cell-based", "conditions": "24 h", "experimental": "as §1"}, "[5]": {"system": "S. aureus (ATCC 6538)", "assay_type": "cell-based, Staphylococcus aureus", "conditions": "ATCC 6538, 24 h", "experimental": "(§2) E. coli (ATCC 25922), S. aureus (ATCC 6538), and C. albicans SC5314 (ATCC MYA-2876) were purchased from the American Type Culture Collection (ATCC). The two bacterial strains, E. coli and S. aureus, were cultured in Mueller Hinton broth at 37 °C; while the yeast strain, C. albicans, was grown in RPMI 1640 medium at 30 °C. The microdilution method was employed to determine MICs of the amphiphiles against the microorganism strains listed above.[21] Solutions of lipopeptides and biocides were half-diluted serially in 96-well plates using PBS buffer containing 137 mM NaCl, 2.7 mM KCl, 8.1 mM Na2HPO4, and 1.9 mM KH2PO4 for E. coli and S. aureus and using RPMI 1640 for C. albicans. Overnight incubations of the strains, in each respective growth medium, were then inoculated into each well, giving final concentrations of 10^6 CFU/mL for E. coli and S. aureus and 10^5 CFU/mL for C. albicans. Culture media without microorganisms and amphiphiles were employed as positive controls, while fresh microorganism cultures without amphiphiles were used as negative controls. Each plate has both positive controls and negative controls. The plates were then incubated at an appropriate temperature (stated above) for 24 h for the bacterial strains and 48 h for the yeast strain. MICs of each sample were first determined by eye. A more quantitative analysis was carried out by measuring optical densities at 600 nm (OD600) of each well using a Sunrise absorbance microplate reader (Tecan Group Ltd.). Inhibitory ratios (IRs) of each sample at a given concentration against a specific strain, denoted as IRi, were calculated by IRi = (OD600,negative control – OD600,i)/(OD600,negative control – OD600,positive control) × 100%. All experiments were repeated at least three times with each group containing three replicates. To better analyze concentration–IR relationships, sigmoidal function fittings were employed to generate the best fitted dose response curve for each situation."}, "[6]": {"system": "hRBCs", "assay_type": "cell-based, human", "experimental": "hRBCs were purchased from Rockland Immunochemical Inc. Hemolytic assays were performed in 96-well plates in an environment of PBS, as previously described.[13],[23] Amphiphiles were half diluted serially at first, resulting in 100 μL of solution in each well, and mixed subsequently with 100 μL of 4% hRBC suspension. Wells filled by PBS mixed with hRBC were employed as positive controls, while hRBCs with added 0.1% Triton X-100 were negative controls. After incubating at 37 °C for 1 h, the plates were centrifuged at 1000 times gravity for 5 min. The supernatants in each well, which contained the released hemoglobin, were transferred to another plate, and their optical density at 450 nm (OD450) was measured using an absorbance microplate reader. The percentage of hemolysis H for each sample at a certain concentration c was obtained by Hc = (OD450,c – OD450,positive control)/(OD450,negative control – OD450,positive control) × 100%. Figures for percentage leakage against concentration for each sample were plotted to determine the approximate range of 50% hemolysis, and the relevant concentration was the half maximal effective concentration (EC50) of the sample. Each experiment was repeated at least three times with each containing three replicates. The dose–response curves were again obtained by applying sigmoidal functional fits to obtain the EC50 values."}, "[7]": {"system": "C. albicans SC5314 (ATCC MYA-2876)", "assay_type": "cell-based, Candida albicans", "conditions": "SC5314, 48 h", "experimental": "as §2"}, "[8]": {"system": "E. coli (ATCC 25922)", "assay_type": "cell-based, Escherichia coli", "conditions": "ATCC 25922, 24 h", "experimental": "as §2"}},
  "note": "Residues, ends and D or L forms follow the SMILES beside them. No end group written: not given here. *: point of attachment. Myristoyl = CCCCCCCCCCCCCC(=O)*",
  "data": [
    {"compound": "KKGGII-NH2 [KKGGII, KKGGII-NH2]", "values": [
      {"measurement": "RP-HPLC retention time (comparison of hydrophobicity)", "setting": "[1]", "value": 15.4, "unit": "min"}
    ]},
    {"compound": "CCCCCCCCCC[N+](C)(C)C.[Br-]", "note": "[C10TAB]", "values": [
      {"measurement": "APM adsorbed on the surface of water", "setting": "[2]", "value": "55 ± 3", "unit": "Å^2"}
    ]},
    {"compound": "CCCCCCCCCCCCCCCCCC[N+](C)(C)C.[Br-]", "note": "[C18TAB]", "values": [
      {"measurement": "APM adsorbed on the surface of water", "setting": "[2]", "value": "43 ± 3", "unit": "Å^2"}
    ]},
    {"compound": "CCCCCCCCCCCCCCCC[N+](C)(C)C.[Br-]", "note": "[C16TAB]", "values": [
      {"measurement": "APM adsorbed on the surface of water", "setting": "[2]", "value": "43 ± 3", "unit": "Å^2"}
    ]},
    {"compound": "CCCCCCCCCCCCCC(=O)N[C@@H](CCCCN)C(=O)N[C@@H](CCCCN)C(=O)NCC(=O)NCC(=O)N[C@H](C(=O)N[C@H](C(N)=O)[C@@H](C)CC)[C@@H](C)CC", "note": "[C14KKGGII, CH3(CH2)12CO-Lys-Lys-Gly-Gly-Ile-Ile-NH2] (Myristoyl-KKGGII-NH2)", "values": [
      {"measurement": "EC50", "setting": "[3]", "value": "66 ± 6", "unit": "µM"},
      {"measurement": "EC50", "setting": "[4]", "value": "110 ± 30", "unit": "µM"},
      {"measurement": "MIC, S. aureus", "setting": "[5]", "value": "9 ± 3", "unit": "µM"},
      {"measurement": "concentration at which hemolysis starts", "setting": "[6]", "value": 16, "unit": "µM"},
      {"measurement": "EC50", "setting": "[6]; 1 h", "value": "180 ± 30", "unit": "µM"},
      {"measurement": "MIC, C. albicans", "setting": "[7]", "value": "12 ± 2", "unit": "µM"},
      {"measurement": "MIC, E. coli", "setting": "[8]", "value": "16 ± 6", "unit": "µM"}
    ]},
    {"compound": "CD3(CD2)12CO-KKGGII-NH2 [dC14KKGGII, acyl chain deuterated C14KKGGII]", "values": [
      {"measurement": "RP-HPLC retention time (comparison of hydrophobicity)", "setting": "[1]", "value": 25.6, "unit": "min"}
    ]}
  ]
}
